Data from patent US20260202414A1, “PROTEIN COMPLEXES FOR PROXIMITY-BASED LABELING OF INTRACELLULAR MICROENVIRONMENTS” (THE TRUSTEES OF PRINCETON UNIVERSITY, priority 2022, published 2026).

System: cereblon (CRBN)
Experiment: Proximity labeling study with CRBN-bound iridium complex and diazo-biotin (FIG. 3/4)
Type: cell-based
Details: transfected cells expressing CRBN with BCNK, tetrazine iridium complex bound to CRBN, diazo-biotin, irradiation; in the presence of CC-885 (without CC-885 only CRBN is enriched)
From the text: Alternatively, the transition metal complex can be bonded to a derivatized amino acid or unnatural amino acid of the protein substrate or E3 ligase. Suitable click chemistry moieties of the transition metal complex and/or unnatural amino acid can be selected from the group consisting of DBCO, BCN, TCO, tetrazine, alkyne and azide. FIG. 3 illustrates validation of such a binding strategy with cereblon (CRBN). Transfected cells were employed to express CRBN with BCNK. Iridium complex comprising a tetrazine moiety was introduced to bind the iridium complex to CRBN. CRBN modulator CC-885 was added to bind to CRBN, and diazo-biotin was added as a protein labeling agent. The iridium complex was irradiated to form a reactive intermediate through energy transfer to the diazo-biotin as described further herein. The reactive intermediate binding to biomolecular species within a predetermined radius of the CRBN-Ir. FIG. 4 illustrates the results of the labeling study. […] In the absence of CC-885, only CRBN is enriched.

Cc1ccc(NC(=O)NCc2ccc3c(c2)CN(C2CCC(=O)NC2=O)C3=O)cc1Cl (stereo not shown) [CC-885]
proteins enriched in the labeling study: CRBN and GSPT1 are enriched
